Data reported in patent US12329773B2, “Oxygen reactive polymers for treatment of traumatic brain injury” (University of Washington, priority 2015, dated 2025).

Assay: MR imaging of uptake, retention and clearance in CCI mouse model of TBI
Assay type: in vivo, mice
Description: 8-10 Week old C57/B6 mice were induced with 4% isoflurane gas via inhalation and maintained at 1.5-2%, then placed upon a warm heating pad set to 100° F. to maintain body temperature. Prior to surgery, hair on the top of the skull was trimmed and epilated via shears and Nair (Church and Dwight Co., Inc., Princeton, NJ). Lidocaine (0.05 mL at a 5 mg/mL) and bupivacaine (0.05 mL at 0.3 mg/mL) were injected subcutaneously under the scalp. After 5 min to allow anesthetic to absorb, a midline incision was made in the skin from lambda to bregma. Fascia and skin were retracted and a small hole drilled using a high speed surgical drill over the left frontoparietal cortex (3 mm anterior and 2 mm left from lambda), and a 3 mm circular cranial window created using rongeurs. A pneumatically-operated controlled cortical impactor (CCI) with a 3 mm convex tip was used to impact the brain normal to the dura surface at a depth of 1 mm at 6 m/s and remained in the brain for 150 ms. Incisions were closed using skin glue and mice given an intraperitoneal injection of buprenorphine (0.1 mg/kg). Mice were monitored under a heat lamp until awake.
Three consecutive T1w images were acquired with RARE (rapid acquisition with refocused echoes) pulse sequence: TR/TE=667.5/4.5 ms, matrix=256×128, field of view (FOV)=25.6×25.6 mm, number of averages (NA)=1, 15 slices and 1 mm slice thickness. […] A series of T1w images were acquired using a fast low angle shot (FLASH) pulse sequence. There were three—four consecutive T1w sequences acquired both pre and post injection—one set of three pre injection acquisitions and then three sets of four post injection acquisitions with an additional set post the following day (4 post imaging total). These images utilized a 3 dimensional (D) FLASH sequence: TR/TE=20/3.87 ms, flip angle=20°, matrix=160×160×30, FOV=25.6×25.6 mm, NA=2, 30 slices and 3D slab of 15 mm. For the first group of mice, T2w images (TR/TE=5500/50 ms) were selected from RARE pulse sequence with (TR=214.3, 500, 1000, 1500, 3000 and 5500 ms and TE=10, 30, 50, 70 and 90 ms, matrix=256×128, FOV=25.6×25.6 mm, NA=1, 2 slices and 1 mm slice thickness. For the second group of mice, T2w images (TR/TE=4000/37.7 ms) were selected from multi-slice and multi-echo imaging conducted with TR/TE=4000/6.3−75.4 ms (12 echoes with 6.3 ms spacing), matrix=256×128, NA=1, 15 slices and 1 mm slice thickness.

blood (circulation) half-life (mouse, in vivo)	half-life in the ventricles (mouse, in vivo) [h]	Compound	accumulation / contrast enhancement in damaged brain (T1 contrast) (mouse, in vivo)	accumulation in damaged brain (T1 contrast) (mouse, in vivo)	half-life in damaged brain (resident half-life) (mouse, in vivo)	retention in damaged brain (mouse, in vivo)	retention within damaged brain (mouse, in vivo)	accumulation / contrast enhancement in damaged brain (T1 contrast) (injected 3 hrs post-CCI)	blood half-life (injected post-CCI, intravascular MR signal) [h]
about 1.1 hrs	~40	poly(MEMcoO950coMNHS) [ORP]	showed accumulation in damaged brain after 18 hrs	accumulates in the damaged region of brain	greater than 14 hrs	at least 18 hrs	at least 24 hrs	–	–
–	–	O=C([O-])CN(CCN(CC(=O)[O-])CC(=O)O)CCN(CC(=O)[O-])CC(=O)O.[Gd+3] [Gd-DTPA, reference compound]	–	–	–	–	–	displayed contrast enhancement in damaged brain	0.6
